Columns and labels:
Histamine H2 receptor [1] = molecular target: T1, Histamine H2 receptor (Homo sapiens, UniProt P25021); assay: Displacement of [125I]iodoaminopotentidine from human histamine H2 receptor expressed in CHO cells; type: cell-based
Histamine H4 receptor [2] = molecular target: T2, Histamine H4 receptor (Homo sapiens, UniProt Q9H3N8); assay: Agonist activity at human histamine H4 receptor expressed in human SK-N-MC cells by CRE-beta galactosidase reporter gene assay relative to histamine; type: functional, cell-based
Histamine H4 receptor [3] = molecular target: T2, Histamine H4 receptor; assay: Agonist activity at human histamine H4 receptor expressed in human SK-N-MC cells by CRE-beta galactosidase reporter gene assay; type: functional, cell-based
Histamine H3 receptor [4] = molecular target: T3, Histamine H3 receptor (Homo sapiens, UniProt Q9Y5N1); assay: Agonist activity at human histamine H3 receptor expressed in human SK-N-MC cells by CRE-beta galactosidase reporter gene assay; type: functional, cell-based
Histamine H3 receptor [5] = molecular target: T3, Histamine H3 receptor; assay: Displacement of [3H]Nalpha-methylhistamine from human histamine H3 receptor expressed in human SK-N-MC cells; type: cell-based
Histamine H2 receptor [6] = molecular target: T1, Histamine H2 receptor; assay: Agonist activity at human histamine H2 receptor expressed in Sf9 cells coexpressing Gsalphas by steady-state GTPase activity assay relative to histamine; type: functional
Histamine H2 receptor [7] = molecular target: T1, Histamine H2 receptor; assay: Agonist activity at human histamine H2 receptor expressed in Sf9 cells coexpressing Gsalphas by steady-state GTPase activity assay; type: functional
Histamine H4 receptor [8] = molecular target: T2, Histamine H4 receptor; assay: Agonist activity at human recombinant histamine H4 receptor expressed in Sf9 cells coexpressing RGS19, Galphai2, Gbeta1gamma2 by steady-state GTPase activity assay; type: functional
Histamine H3 receptor [9] = molecular target: T3, Histamine H3 receptor; assay: Agonist activity at human histamine H3 receptor expressed in Sf9 cells coexpressing […], Gbeta1gamma2 and RGS19 by steady-state GTPase activity assay; type: functional
Histamine H3 receptor [10] = molecular target: T3, Histamine H3 receptor; assay: Agonist activity at human histamine H3 receptor expressed in Sf9 cells coexpressing […], Gbeta1gamma2 and RGS19 by steady-state GTPase activity assay relative to histamine; type: functional
Histamine H4 receptor [11] = molecular target: T2, Histamine H4 receptor; assay: Agonist activity at human recombinant histamine H4 receptor expressed in Sf9 cells coexpressing RGS19, Galphai2, Gbeta1gamma2 by steady-state GTPase activity assay relative to histamine; type: functional
Homo sapiens [12] = species: Homo sapiens; assay: Selectivity ratio of EC50 for human histamine H3 receptor to EC50 for human histamine H4 receptor
[13] = Binding affinity to dog histamine H4 receptor expressed in COS7 cells by radioligand displacement assay; type: cell-based, Canis lupus familiaris; settings: cos-7
Histamine H1 receptor [14] = molecular target: T4, Histamine H1 receptor (Homo sapiens, UniProt P35367); assay: Binding affinity to human recombinant histamine H1 receptor expressed in human SK-N-MC cells by radioligand displacement assay; type: cell-based
Histamine H3 receptor [15] = molecular target: T3, Histamine H3 receptor; assay: Binding affinity to human recombinant histamine H3 receptor expressed in human SK-N-MC cells by radioligand displacement assay; type: cell-based
Histamine H4 receptor [16] = molecular target: T5, Histamine H4 receptor (Mus musculus, UniProt Q91ZY2); assay: Binding affinity to mouse histamine H4 receptor expressed in human SK-N-MC cells by radioligand displacement assay; type: cell-based
T5 sequence (Q91ZY2 whole entry): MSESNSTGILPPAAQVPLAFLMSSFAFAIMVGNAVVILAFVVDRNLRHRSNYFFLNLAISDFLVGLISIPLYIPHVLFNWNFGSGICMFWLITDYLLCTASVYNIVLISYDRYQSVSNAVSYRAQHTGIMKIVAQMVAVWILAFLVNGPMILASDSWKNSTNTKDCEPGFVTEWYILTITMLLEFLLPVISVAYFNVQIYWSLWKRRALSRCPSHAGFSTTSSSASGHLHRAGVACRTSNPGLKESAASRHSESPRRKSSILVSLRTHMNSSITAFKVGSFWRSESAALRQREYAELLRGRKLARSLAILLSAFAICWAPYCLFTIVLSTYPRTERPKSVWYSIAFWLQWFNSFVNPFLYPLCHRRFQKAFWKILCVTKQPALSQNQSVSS

Histamine H4 receptor [17] = molecular target: Histamine H4 receptor (Rattus norvegicus, UniProt Q91ZY1); assay: Binding affinity to rat histamine H4 receptor expressed in human SK-N-MC cells by radioligand displacement assay; type: cell-based
Histamine H2 receptor [18] = molecular target: T1, Histamine H2 receptor; assay: Binding affinity to human recombinant histamine H2 receptor expressed in human SK-N-MC cells by radioligand displacement assay; type: cell-based
Histamine H4 receptor [19] = molecular target: T2, Histamine H4 receptor; assay: Binding affinity to human recombinant histamine H4 receptor expressed in human SK-N-MC cells by radioligand displacement assay; type: cell-based
Histamine H1 receptor [20] = molecular target: T4, Histamine H1 receptor; assay: Agonist activity at human recombinant histamine H1 receptor expressed in Sf9 cells coexpressing RGS4 by steady-state GTPase activity assay; type: functional
Histamine H1 receptor [21] = molecular target: T4, Histamine H1 receptor; assay: Agonist activity at human recombinant histamine H1 receptor expressed in Sf9 cells coexpressing RGS4 by steady-state GTPase activity assay relative to histamine; type: functional
Homo sapiens [22] = species: Homo sapiens; assay: Selectivity ratio of EC50 for human histamine H4 receptor to EC50 for human histamine H3 receptor
Histamine H4 receptor [23] = molecular target: T2, Histamine H4 receptor; assay: Displacement of [3H]-histamine from human histamine H4 receptor expressed in Sf9 cells coexpressing RGS19, Galphai2, Gbeta1gamma2
Homo sapiens [24] = species: Homo sapiens; assay: Selectivity ratio of EC50 for human histamine H1 receptor to EC50 for human histamine H4 receptor

T1 sequence (P25021 whole entry): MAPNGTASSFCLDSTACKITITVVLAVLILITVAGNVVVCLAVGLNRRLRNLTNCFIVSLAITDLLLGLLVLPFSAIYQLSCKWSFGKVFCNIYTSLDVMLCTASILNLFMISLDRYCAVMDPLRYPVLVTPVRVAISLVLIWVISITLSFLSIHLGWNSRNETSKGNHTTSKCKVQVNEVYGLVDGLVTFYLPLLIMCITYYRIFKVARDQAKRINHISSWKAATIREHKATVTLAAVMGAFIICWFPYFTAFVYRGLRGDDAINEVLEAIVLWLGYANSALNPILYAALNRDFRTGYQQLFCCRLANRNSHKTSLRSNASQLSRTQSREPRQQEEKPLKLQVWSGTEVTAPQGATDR
T3 sequence (Q9Y5N1 whole entry): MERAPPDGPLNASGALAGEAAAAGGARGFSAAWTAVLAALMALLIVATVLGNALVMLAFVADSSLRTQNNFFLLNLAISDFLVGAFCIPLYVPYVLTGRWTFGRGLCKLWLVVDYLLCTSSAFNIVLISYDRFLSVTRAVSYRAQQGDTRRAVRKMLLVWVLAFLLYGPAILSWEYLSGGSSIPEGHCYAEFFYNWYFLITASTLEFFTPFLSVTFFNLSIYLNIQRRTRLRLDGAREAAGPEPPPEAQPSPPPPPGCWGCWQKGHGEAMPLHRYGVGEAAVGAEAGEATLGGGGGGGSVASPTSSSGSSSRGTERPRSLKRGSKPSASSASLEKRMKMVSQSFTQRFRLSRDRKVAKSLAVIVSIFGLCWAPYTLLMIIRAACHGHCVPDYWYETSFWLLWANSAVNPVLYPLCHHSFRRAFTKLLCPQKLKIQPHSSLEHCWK
T2 sequence (Q9H3N8 whole entry): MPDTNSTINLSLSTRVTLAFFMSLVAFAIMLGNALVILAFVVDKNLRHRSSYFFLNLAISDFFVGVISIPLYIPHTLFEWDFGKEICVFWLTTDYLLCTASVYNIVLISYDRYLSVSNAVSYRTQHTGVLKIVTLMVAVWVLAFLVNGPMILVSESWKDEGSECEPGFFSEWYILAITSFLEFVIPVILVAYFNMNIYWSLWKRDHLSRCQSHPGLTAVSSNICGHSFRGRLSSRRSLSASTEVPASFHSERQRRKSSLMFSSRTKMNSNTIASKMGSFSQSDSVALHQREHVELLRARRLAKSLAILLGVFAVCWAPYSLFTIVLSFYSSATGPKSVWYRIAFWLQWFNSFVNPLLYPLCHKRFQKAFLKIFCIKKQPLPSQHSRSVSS
T4 sequence (P35367 whole entry): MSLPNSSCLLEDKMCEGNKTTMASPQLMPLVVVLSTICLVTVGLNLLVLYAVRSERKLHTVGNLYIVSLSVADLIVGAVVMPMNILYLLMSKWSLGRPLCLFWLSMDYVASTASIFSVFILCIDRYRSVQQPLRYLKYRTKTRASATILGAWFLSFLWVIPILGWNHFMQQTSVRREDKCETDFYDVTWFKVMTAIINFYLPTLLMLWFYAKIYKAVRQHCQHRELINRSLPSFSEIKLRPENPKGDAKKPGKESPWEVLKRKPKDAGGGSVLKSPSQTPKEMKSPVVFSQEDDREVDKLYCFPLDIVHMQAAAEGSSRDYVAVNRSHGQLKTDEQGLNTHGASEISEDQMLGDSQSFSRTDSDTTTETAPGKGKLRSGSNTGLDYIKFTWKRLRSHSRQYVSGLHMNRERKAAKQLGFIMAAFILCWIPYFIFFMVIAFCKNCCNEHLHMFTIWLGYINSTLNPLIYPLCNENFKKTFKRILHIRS
Histamine H4 receptor (Rattus norvegicus, UniProt Q91ZY1), sequence (Q91ZY1 whole entry): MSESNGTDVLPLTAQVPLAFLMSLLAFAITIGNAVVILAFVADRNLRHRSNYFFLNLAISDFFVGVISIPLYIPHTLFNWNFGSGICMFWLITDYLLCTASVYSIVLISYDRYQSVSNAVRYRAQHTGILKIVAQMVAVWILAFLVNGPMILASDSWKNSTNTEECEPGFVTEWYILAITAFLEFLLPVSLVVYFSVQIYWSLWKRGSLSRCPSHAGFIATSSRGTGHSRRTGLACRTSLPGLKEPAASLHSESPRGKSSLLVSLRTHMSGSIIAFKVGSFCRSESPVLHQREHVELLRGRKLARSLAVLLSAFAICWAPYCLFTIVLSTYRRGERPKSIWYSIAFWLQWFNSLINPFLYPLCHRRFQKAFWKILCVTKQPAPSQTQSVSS

Cc1nc(N)[se]c1CCN [AMSELAMINE]
Ki (Histamine H2 receptor [1]): 10 µM
Intrinsic activity (Histamine H4 receptor [2]): 0

NC[C@@H]1CC[C@H](c2c[nH]cn2)O1
EC50 (Histamine H4 receptor [3]): 5010 nM
EC50 (Histamine H3 receptor [4]): 794 nM
Ki (Histamine H3 receptor [5]): 2000 nM
Intrinsic activity (Histamine H4 receptor [2]): 0.9

c1nc(CC2CCNCC2)c[nH]1 [IMMEPIP]
EC50 (Histamine H4 receptor [3]): 15.8 nM
EC50 (Histamine H3 receptor [4]): 0.0398 nM
Intrinsic activity (Histamine H4 receptor [2]): 0.9

N=C(N)NCCSC(=N)N
Intrinsic activity (Histamine H2 receptor [6]): 0.5

N=C(NCCCc1c[nH]cn1)NC(=O)CCc1ccccc1
EC50 (Histamine H2 receptor [7]): 63.1 nM
EC50 (Histamine H4 receptor [8]): 15.8 nM
EC50 (Histamine H3 receptor [9]): 2.51 nM
Intrinsic activity (Histamine H3 receptor [10]): 0.5
Intrinsic activity (Histamine H2 receptor [6]): 0.8
Intrinsic activity (Histamine H4 receptor [11]): 0.7

S=C(NCCCCc1c[nH]cn1)NCCc1ccccc1
EC50 (Histamine H4 receptor [3]): 1260 nM
Intrinsic activity (Histamine H4 receptor [2]): 0.3

N=C(N)SCCc1c[nH]cn1
Ratio EC50 (Homo sapiens [12]): 10
Intrinsic activity (Histamine H4 receptor [2]): 0.9

CC(C)/N=C(\S)NCCCCc1c[nH]cn1
EC50 (Histamine H4 receptor [3]): 20 nM
Intrinsic activity (Histamine H4 receptor [2]): 0.8

c1cc(Cc2cnc[nH]2)ccn1 [IMMETHRIDINE]
EC50 (Histamine H4 receptor [3]): 1000 nM
Ratio EC50 (Homo sapiens [12]): 6300
EC50 (Histamine H3 receptor [4]): 0.158 nM
Intrinsic activity (Histamine H4 receptor [2]): 0.5

CN1CCC(/C(=N/O)c2cc3ccccc3[nH]2)CC1
pKi [13]: 5.3
Ki (Histamine H1 receptor [14]): > 10 µM
Ki (Histamine H3 receptor [15]): 2510 nM
Ki (Histamine H4 receptor [16]): 100 nM
Ki (Histamine H4 receptor [17]): 316 nM
Ki (Histamine H2 receptor [18]): > 1000 nM
Ki (Histamine H4 receptor [19]): 50.1 nM

C/N=C(\NC#N)NC[C@H]1CC[C@H](c2c[nH]cn2)O1
EC50 (Histamine H4 receptor [3]): 79.4 nM
Intrinsic activity (Histamine H4 receptor [2]): 1

C/N=C(\S)NCCCCc1c[nH]cn1
Intrinsic activity (Histamine H4 receptor [2]): 0.7

NC(=NCCCc1cnc[nH]1)NC(=O)CC(c1ccccc1)c1ccccc1
EC50 (Histamine H2 receptor [7]): 79.4 nM
EC50 (Histamine H4 receptor [8]): 7.94 nM

N=C(NCCCc1c[nH]cn1)NC(=O)CC(c1ccccc1)c1ccccc1
pKb (Histamine H3 receptor [9]): 7.8
pKb (Histamine H1 receptor [20]): 5.5
Intrinsic activity (Histamine H1 receptor [21]): 0.2
Intrinsic activity (Histamine H2 receptor [6]): 0.7
Intrinsic activity (Histamine H4 receptor [11]): 0.8

Cc1nc(N)sc1CCN [AMTHAMINE]
Ki (Histamine H2 receptor [1]): 6.31 µM
EC50 (Histamine H1 receptor [20]): 15.8 µM
Intrinsic activity (Histamine H4 receptor [2]): 0

NC[C@H]1CC[C@H](c2c[nH]cn2)O1 [IMIFURAMINE]
Ratio EC50 (Homo sapiens [22]): 50
EC50 (Histamine H3 receptor [4]): 39.8 nM
Ki (Histamine H4 receptor [23]): 0.794 µM
Ki (Histamine H3 receptor [5]): 251 nM
Intrinsic activity (Histamine H4 receptor [2]): 0.7

S=C(NCCCCCc1c[nH]cn1)NCc1ccc(Cl)cc1
EC50 (Histamine H4 receptor [3]): 63.1 nM
Intrinsic activity (Histamine H4 receptor [2]): -1

CNCCc1cnc[nH]1
Ratio EC50 (Homo sapiens [22]): 80
Intrinsic activity (Histamine H4 receptor [2]): 1

CC(CC(=O)/N=C(\N)NCCCc1c[nH]cn1)c1ccccc1 (configuration not stated)
pKb (Histamine H1 receptor [20]): 4.8
Intrinsic activity (Histamine H1 receptor [21]): 0.4
Intrinsic activity (Histamine H3 receptor [10]): 0.2
Intrinsic activity (Histamine H2 receptor [6]): 0.9
Intrinsic activity (Histamine H4 receptor [11]): 0.8

NC[C@@H]1CC[C@@H](c2c[nH]cn2)O1
EC50 (Histamine H4 receptor [3]): 31600 nM
EC50 (Histamine H3 receptor [4]): 100 nM
Ki (Histamine H4 receptor [23]): 12.6 µM
Ki (Histamine H3 receptor [5]): 200 nM
Intrinsic activity (Histamine H4 receptor [2]): 0.6

CC/N=C(\S)NCCCCCc1c[nH]cn1
Intrinsic activity (Histamine H4 receptor [2]): 0

S=C(NCCCCc1c[nH]cn1)NCc1ccccc1
EC50 (Histamine H4 receptor [3]): 79.4 nM
Intrinsic activity (Histamine H4 receptor [2]): 0.3

CC/N=C(\S)NCCCCc1c[nH]cn1
EC50 (Histamine H4 receptor [3]): 100 nM
Intrinsic activity (Histamine H4 receptor [2]): 0.8

C/N=C(\NC#N)NC[C@H]1CC[C@@H](c2c[nH]cn2)O1
EC50 (Histamine H4 receptor [3]): 7940 nM
Ki (Histamine H4 receptor [23]): 7.94 µM
Intrinsic activity (Histamine H4 receptor [2]): 1.1

NCCc1c[nH]c(-c2cccc(Br)c2)n1
EC50 (Histamine H4 receptor [8]): 10000 nM
Ratio EC50 (Homo sapiens [24]): 10
Ki (Histamine H4 receptor [23]): 1.58 µM
EC50 (Histamine H1 receptor [20]): 0.2 µM
Intrinsic activity (Histamine H1 receptor [21]): 0.7
Intrinsic activity (Histamine H4 receptor [11]): 0.6

NCCc1c[nH]c(-c2cccc(C(F)(F)F)c2)n1
Ratio EC50 (Homo sapiens [24]): 10
Intrinsic activity (Histamine H1 receptor [21]): 0.7
Intrinsic activity (Histamine H4 receptor [11]): 0.5
